One data set relates to rVSV-EBOV GP. As to the kind of experiment: microbe, parasite or virus in culture. In kind it is cell-based, Zaire Ebolavirus. The following applies: for IC50: Zaire ebolavirus, read-out: rVSV-EBOV IC50.
Data set [1] has as its system authentic EBOV (EBOV-Zaire 1995). Description: microbe, parasite or virus in culture. In kind it is cell-based, Ebola virus. To be noted: Zaire ebolavirus, Vero, 48 h, read-out: infectious EBOV-Z IC50.
The test system of a further data set is rVSV-SUDV GP. In kind it is cell-based, Sudan Ebolavirus.
The next data set relates to rVSV-BDBV GP. Format: cell-based, Bundybugyo Ebolavirus.
The next data set in a line: in vitro. To be noted: African green monkey.
Data set [2] relates to EBOV-GPCL/NPC1-C interaction. In kind it is binding, human.

The text below walks through data of US11459308B2 (priority 2016, dated 2022).

Where only a bound is given, the exact number is not on record here.

Turning to `O=[N+]([O-])c1ccc(N2CCN(Cc3ccoc3)CC2)cc1NC(c1ccccc1)c1ccccc1` [MBX 3574, 1-(benzhydrylamino)-5-[4-(furan-3-ylmethyl)piperazin-1-yl]-2-nitrobenzene], in the data set on rVSV-EBOV GP, the “inhibition of infection of Vero cells by rVSV-EBOV GP” value was “potent inhibitors” and the IC50 is 560 nM. In addition, in data set [1], the 50% inhibitory concentration (IC50) was determined as 1200 nM. In addition, in the data set on rVSV-SUDV GP, the “inhibition of infection of Vero cells by rVSV-SUDV GP” value was “potent inhibitors”. Further, the “inhibition of infection of Vero cells by rVSV-BDBV GP” value with rVSV-BDBV GP is “potent inhibitors”. In the data set “in vitro”, this molecule yielded a CC50 of over 200000 nM.

`O=[N+]([O-])c1ccc(N2CCN(CCO)CC2)cc1NC(c1ccccc1)c1ccccc1` [MBX 3588, 1-(benzhydrylamino)-5-[4-(2-hydroxyethyl)piperazin-1-yl]-2-nitrobenzene]: in the data set with rVSV-EBOV GP, the IC50 stood at 1400 nM. Further, the IC50 in data set [1] was found to be 730 nM. In data set [2], the “inhibition of GPCL-NPC1-C AlphaLISA compared with biotin-streptavidin AlphaLISA” value is “much more potently” and the “selectivity for inhibition of the EBOV-GPCL/NPC1-C interaction vs. the biotin-streptavidin interaction” value was “about 10 fold”. The CC50 in the data set “in vitro” turned out to be 21000 nM.

`CN(C)CCN(C)c1ccc([N+](=O)[O-])c(NC(c2ccccc2)c2ccccc2)c1` [MBX 3729, 2-(benzhydrylamino)-4-{[2-(dimethylamino)ethyl](methyl)amino}-1-nitrobenzene]: the IC50 is under 100 nM in the data set with rVSV-EBOV GP and 1300 nM in data set [1]. In the data set “in vitro”, this molecule displayed a CC50 of 10000 nM.

Turning to `CN1CCN(c2ccc([N+](=O)[O-])c(NC(C)(C)c3ccccc3)c2)CC1` [MBX 3741, 2-(2-phenylpropan-2-ylamino)-4-(4-methylpiperazin-1-yl)-1-nitrobenzene], the IC50 came out at 3100 nM in the data set on rVSV-EBOV GP and 10300 nM in data set [1]. Besides, in the data set “in vitro”, the CC50 was found to be 85000 nM.

For `CN1CCN(c2cc(C#N)c([N+](=O)[O-])c(NC(c3ccccc3)c3ccccc3)c2)CC1` [MBX 3743, 2-(benzhydrylamino)-4-(4-methylpiperazin-1-yl)-6-cyano-1-nitrobenzene], the concentration for half-maximal inhibition (IC50) (with rVSV-EBOV GP; in data set [1]) was 2000 nM in each case. Moreover, the CC50 in “in vitro” is over 100000 nM.

Take `CC(C)(C)N1CCCN(c2ccc([N+](=O)[O-])c(NC(c3ccccc3)c3ccccc3)c2)CC1` [MBX 3748, 2-(benzhydrylamino)-4-[4-(tert-butyl)-1,4-diazepan-1-yl]-1-nitrobenzene]: the IC50 was determined as 250 nM with rVSV-EBOV GP and 700 nM in data set [1]. The molecule further gave a CC50 in “in vitro” of 23000 nM.

On to `c1ccc(C(c2ccccc2)n2cnc3ccc(N4CCN5CCCC5C4)cc32)cc1` (centres unmarked) [MBX 4210, 1-benzhydryl-6-(hexahydropyrrolo[1,2-a]pyrazin-2(1H)-yl)-1H-benzo[d]imidazole], for which the IC50 in the data set with rVSV-EBOV GP is 1600 nM; in data set [1] it was 1800 nM. The CC50 in “in vitro” was over 200000 nM.

With `CC1CN(c2ccc3ncn(C(c4ccccc4)c4ccccc4)c3c2)CCN1C` (centres unmarked) [MBX 4212, 1-benzhydryl-6-(3,4-dimethylpiperazin-1-yl)-1H-benzo[d]imidazole], the IC50 in the data set with rVSV-EBOV GP was determined as 1600 nM; in data set [1] it was 530 nM. Also, in “in vitro”, the CC50 came out at 170000 nM.

As to `CN(C)CCNc1ccc2ncn(C(c3ccccc3)c3ccccc3)c2c1` [MBX 4251, N^1-(1-benzhydryl-1H-benzo[d]imidazol-6-yl)-N^2,N^2-dimethylethane-1,2-diamine], the IC50 with rVSV-EBOV GP amounted to 2010 nM; in data set [1], 2660 nM. This molecule had a CC50 in “in vitro” of 105000 nM.

As for `CN(C)CCCNc1ccc2ncn(C(c3ccccc3)c3ccccc3)c2c1` [MBX 4252, N^1-(1-benzhydryl-1H-benzo[d]imidazol-6-yl)-N^3,N^3-dimethylpropane-1,3-diamine], the IC50 with rVSV-EBOV GP was 3930 nM; in data set [1], 8620 nM. In “in vitro”, this molecule had a CC50 of 50000 nM.

Consider `CC(C)N(CCNc1ccc2ncn(C(c3ccccc3)c3ccccc3)c2c1)C(C)C` [MBX 4253, N1-(1-benzhydryl-1H-benzo[d]imidazol-6-yl)-N2,N2-diisopropylethane-1,2-diamine 2,2,2-trifluoroacetate], for which the 50% inhibitory concentration (IC50) in the data set with rVSV-EBOV GP amounted to 1300 nM; in data set [1] it was 1850 nM. In “in vitro”, the CC50 stood at 95000 nM.

For the molecule `CN(C)CCNc1ccc([N+](=O)[O-])c(NC(c2ccccc2)c2ccccc2)c1` [MBX 4334, N^3-benzhydryl-N^1-(2-(dimethylamino)ethyl)-4-nitrobenzene-1,3-diamine], the IC50 with rVSV-EBOV GP came out at 1040 nM; in data set [1], 820 nM. This molecule also came in with a CC50 in the data set “in vitro” of 16000 nM.

With `CN(C)CCCNc1ccc([N+](=O)[O-])c(NC(c2ccccc2)c2ccccc2)c1` [MBX 4335], the half-maximal inhibitory concentration (IC50) is 790 nM in the data set with rVSV-EBOV GP and 480 nM in data set [1]. Further, the CC50 in “in vitro” turned out to be 11000 nM.

`CC(C)N(CCNc1ccc([N+](=O)[O-])c(NC(c2ccccc2)c2ccccc2)c1)C(C)C` [MBX 4336, N^3-benzhydryl-N^1-(2-(diisopropylamino)ethyl)-4-nitrobenzene-1,3-diamine]: the half-inhibitory concentration (IC50) in the data set with rVSV-EBOV GP was found to be 390 nM; in data set [1], 560 nM. The molecule further showed a CC50 in “in vitro” of 12000 nM.

Take `CN1CCN(c2ccc([N+](=O)[O-])c(NC(c3ccccc3)c3ccccc3)c2)CC1` [PPZ-1, N-benzhydryl-5-(4-methylpiperazin-1-yl)-2-nitroaniline]: the figures for the half-maximal inhibitory concentration (IC50) (in the data set on rVSV-EBOV GP; in data set [1]) were 1200 nM and 2300 nM, respectively. Further, the CC50 in “in vitro” came to 61000 nM.
